Drawing on a melting point compilation (Tetko et al.; mined from patent text by program, amines drawn as free bases though some values may be those of a salt), this text covers melting point for 91 molecules.

Structures are written as SMILES.

With `O=C(c1ccc(Cl)cc1)C(Cc1ccc(Cl)cc1)c1cccnc1` (stereo unspecified), the melting point (usually the temperature, or range, at which the solid turns liquid) is 98 to 99 °C.

`CO[C@H]1O[C@@H](C)[C@@H]2C(=O)[C@H]3CCCC[C@@H]3C[C@H]12`: the melting point lay in the range of 86 to 87 °C.

Turning to `Cc1nc2ncnn2c(N[C@@H](C)c2ccc(F)cc2)c1Cl`, the melting point fell in the range of 103 to 104 °C.

As for `O=C1NC(=O)c2c1ccc(N1C(=O)C=CC1=O)c2N1C(=O)C=CC1=O`, the melting point is 180 to 200 °C.

Regarding `CSC1C(=O)Nc2ccc(C3=NNC(=O)SC3)cc21` (stereo unspecified), the melting point was 201 to 204 °C.

In the case of `CCOC(=O)C(=O)Nc1cc(NC(C)=O)ccc1O`, the melting point is over 300 °C.

As to `CCS(=O)(=O)Nc1cc(Cc2c[nH]cn2)ccc1F`, the melting point lay in the range of 122 to 123 °C.

Regarding `O=C(N[C@H]1CC[C@H](CCN2CCC(c3cccc4c3CCO4)CC2)CC1)c1ccc(-c2cccnc2)cc1`, the melting point is 224 °C.

`CCCc1c(OCCCOc2ccc(C(=O)CCl)c(OC)c2CCC)ccc2c1OC(C(=O)OC)CC2` (stereo unspecified): the melting point is 47 to 49 °C.

For `Cc1ccc(Cn2c(=O)[nH]c3cc(Cl)cc(Cl)c3c2=O)cc1`, the melting point was 210 to 218 °C.

Molecule `Cc1c(Cc2ccccc2)c(=O)n(Cc2ccc(F)cc2)c2cc(OCc3nnn[nH]3)cc(OCc3nnn[nH]3)c12` had a melting point of 126 to 132 °C.

Turning to `Cc1nnc(N2C(=O)C(O)=C(C(=O)c3ccc(C(C)C)cc3)C2c2ccc(OC(F)(F)F)cc2)s1` (stereo unspecified), the melting point was 260 °C.

`COc1ccc2cc(-c3oc4ccccc4c3C(O)CC3CCCC3)ccc2c1` (stereo unspecified) yielded a melting point of 176 to 177 °C.

For `COc1cc(C(C)=O)ccc1SCCCCl`, the melting point lay within 53 to 55 °C.

`COc1cc(OCC(CO)CO)c(C=CC(=O)c2ccc(S(=O)(=O)Nc3cc(C)on3)cc2)cc1-c1cccs1`: the melting point was 165 to 166 °C.

As for `CCOc1nn(Cc2ccc(OCc3nc(-c4cccs4)oc3C)cc2)cc1CCC(=O)O`, the melting point fell in the range of 156 to 157 °C.

`CC(O)(Cn1ccnc1)c1ccc2c(c1)Cc1ccccc1-2` (stereo unspecified): the melting point was 183 to 184 °C.

Turning to `CCCCN1C(=O)NC(=Cc2cccs2)C1=O`, the melting point was determined as 140 °C.

The molecule `CCCCCc1c(/C=C/C(=O)O)sc2cc(OC)ccc12` displayed a melting point of 209 to 210 °C.

`Cc1cc(Oc2ccc(NC(=O)N(C)C)cc2)nc(Cl)n1` showed a melting point of 176 to 178 °C.

Turning to `CCc1noc(-c2cn(-c3cccc(Oc4ccc(N)cc4)c3)cn2)n1`, the melting point was in the range of 131 to 133 °C.

Turning to `CCc1cc(C(=O)O)c(Nc2ccccc2[N+](=O)[O-])s1`, the melting point lay in the range of 189 to 191 °C.

On to `COc1nc(NC(=O)NS(=O)(=O)c2ccsc2C(=O)C2CC2)nc(OC)n1`, for which the melting point was in the range of 146 to 148 °C.

The molecule `N#Cc1ccc(N2C(=O)N(CCCC(=O)O)C3(CCSCC3)C2=O)cc1C(F)(F)F` displayed a melting point of 197 to 198 °C.

Regarding `Cc1cccnc1Cn1nnc2ccccc21`, the melting point fell in the range of 175 to 177 °C.

Take `CC1CC(=O)NN=C1c1ccc(N2CCN(C#N)CC2)c([N+](=O)[O-])c1` (stereo unspecified): the melting point was 247 to 248 °C.

Molecule `CS(=O)(=O)N1CCN(c2cc(Cl)ncn2)CC1` returned a melting point of 200 to 202 °C.

On to `Nc1nc2c(s1)CCN(CC=Cc1ccc(Cl)cc1)CC2`, for which the melting point is 145 to 150 °C.

The molecule `Cc1oc(-c2ccccc2)nc1COc1ccc(COc2nn(-c3ccccc3)cc2C=O)cc1` yielded a melting point of 152 to 153 °C.

In turn, `CON1C=C2C=C(SC)N=C(Cl)N2N1` displayed a melting point of 243 to 244 °C.

Regarding `CC(C)(C)c1cc(I)c(O)c(CNC(=O)C(F)(F)F)c1`, the melting point was 118 to 119 °C.

`Cc1nc2nc(SCc3ccccc3)nn2c(O)c1Cl` had a melting point of 258 to 260 °C.

For the molecule `c1ccc2c(c1)CNc1ccccc1N2`, the melting point fell in the range of 114 to 116 °C.

`CCN1CCNC(=O)c2ccc(Nc3ncc(Cl)c(Nc4ccccc4OCCN4CCOCC4)n3)cc21` gave a melting point of 223 to 225 °C.

As to `ClC(Cl)(Oc1ccccc1)Oc1ccccc1`, the melting point lay in the range of 42 to 44 °C.

Molecule `Cc1onc(-c2c(F)cccc2Cl)c1-c1csc(N)n1` gave a melting point of 148 to 149 °C.

Molecule `O=C(c1ccccc1)N1CCCC2=C1CCc1cc(Cl)ccc12` registered a melting point of 194 to 196 °C.

In the case of `NC(=O)c1ccc(-c2cnc3[nH]c(=O)n(CC4CCCCC4)c3n2)cc1`, the melting point is 293 to 295 °C.

For the molecule `Cc1cc(F)ccc1-c1nc(OCCN)nc2c1ccc(=O)n2-c1c(F)cccc1F`, the melting point lay within 96 to 99 °C.

`Cc1c(F)cc(C(=O)NCCC(C)C)cc1-c1ccc(C(=O)NCC(C)(C)C)cc1C(=O)Nc1nccs1` had a melting point of 159 to 164 °C.

As for `CCn1c(=O)c2c(N3CCN(C)CC3)cc(Cl)cc2n(Cc2ccccc2)c1=O`, the melting point was in the range of 155 to 159 °C.

`NS(=O)(=O)NCC1COc2ccccc2O1` (stereo unspecified) had a melting point of 97.5 to 98.5 °C.

Take `CN1CC(c2cc(CCc3ccccc3)cnn2)=C(O)C1=O`: the melting point lay in the range of 203 to 205 °C.

`CCOc1cc(-c2cc(C(F)(F)F)nc(Cl)n2)ccc1C(F)(F)F`: the melting point worked out at 89 °C.

The molecule `CS(=O)c1ccc(Oc2ccc(Cl)c(Cl)c2)nc1` (stereo unspecified) showed a melting point of 88 to 90 °C.

Regarding `Cc1cc(=O)[nH]nc1-c1cccc(C(F)(F)F)c1`, the melting point lay in the range of 224 to 227 °C.

In turn, `CCc1cc2c(C3=NNC(=O)CC3C)cc(Cl)cn2n1` (stereo unspecified) gave a melting point of 172 to 174 °C.

Turning to `Cc1c(-c2ccccc2)c(N2CC[C@H](N(C)C)C2)c2oc(N3CC(CO)C3)nc2c1C#N`, the melting point lay within 48 to 51 °C.

Turning to `CC(=O)OCC1(COC(C)=O)CC1(Br)Cn1cc(C)c(=O)[nH]c1=O` (stereo unspecified), the melting point fell in the range of 197 to 198 °C.

Molecule `COC(=O)Cc1c(C)n(-c2nc3ccccc3o2)c2ccc(OC)cc12` showed a melting point of 125 to 126 °C.

In the case of `O=C(CCc1ccc(F)cc1)c1cccnc1F`, the melting point was in the range of 73 to 74 °C.

Consider `CCc1cccc(CC)c1NCc1n[nH]c(=S)n1C`, for which the melting point is 117 to 121 °C.

In the case of `Cn1c(CO)c(-c2ccc(F)cc2)c2ccccc21`, the melting point lay in the range of 99 to 104 °C.

In turn, `COc1cccc2c(Nc3ccccc3C)c(C(=O)CCC(=O)O)cnc12` yielded a melting point of 263 to 265 °C.

Consider `CC(=O)Oc1ccc(Cl)cc1C(=O)O`, for which the melting point fell in the range of 146 to 148 °C.

For the molecule `CCC(Oc1ccc2c(-c3ccc(Cl)cc3)noc2c1)C(=O)O` (stereo unspecified), the melting point was determined as 144 °C.

In turn, `Cc1c(C)c(N2C(=O)c3cc(Cl)c(Cl)cc3C2=O)c(C)c2c1OC(C)(C)C2c1ccc(F)cc1` (stereo unspecified) yielded a melting point of 232 to 233 °C.

Consider `COC(=O)Cn1c(C(=O)Nc2nc(-c3cc(OC)c(C)cc3OC)c(CCC3CCCCC3)s2)cc2cc(C)cc(C)c21`, for which the melting point was in the range of 154 to 162 °C.

`O=C(C1COc2ccc([N+](=O)[O-])cc21)N1CCCCC1` (stereo unspecified): the melting point fell in the range of 108 to 114 °C.

Take `COc1c(Cl)ccc(Cl)c1C(=O)NOCC(=O)O`: the melting point fell in the range of 145 to 154 °C.

For `COC(=O)CCC(=O)c1ccc(Br)cc1`, the melting point lay within 49 to 51 °C.

`CCOC(=O)c1c(C(F)(F)F)nc(C(F)(F)Cl)c(C(=O)OC)c1NC(C)(C)C` came in with a melting point of 51.5 to 53 °C.

Consider `CN1C(=O)CCC2(C)C1=CCC1C2CCC2(C)C(O)CCC12` (stereo unspecified), for which the melting point fell in the range of 181 to 183 °C.

`CCCCc1ccc(NC=NO)c(C)c1`: the melting point is 132 to 134 °C.

The molecule `COc1ccccc1N1CCN(CCCNC(=O)c2cccc3c(=O)c(C)c(-c4cccc5ccccc45)oc23)CC1` displayed a melting point of 134 to 138 °C.

Molecule `CN1CCN(c2nc3cccc4c3n2CCC4)CC1` showed a melting point of 112 to 113 °C.

Take `COC(=O)C1=C(C)NC2=C(C1c1cccc([N+](=O)[O-])c1)S(=O)(=O)CCC2` (stereo unspecified): the melting point lay in the range of 236 to 238 °C.

In turn, `C=CCn1c(C)c(C)c2cnnc(OCc3ccc(F)cc3F)c21` yielded a melting point of 125 to 126 °C.

`O=C(O)Cc1ccc(CCNC(=O)c2ccc(Cl)cc2)cc1`: the melting point was 182 to 183 °C.

Turning to `CN(C)C(=O)c1cc(O)ccc1C=Cc1ccc(O)cc1`, the melting point lay in the range of 184 to 188 °C.

With `CC12CCC(O)CC1CCC1C2CCC2(C)C(OCCO)CCC12` (stereo unspecified), the melting point was in the range of 181 to 183 °C.

Turning to `NC1CCCN(c2ncc3ncnc(Nc4ccc(F)c(Cl)c4)c3n2)C1` (stereo unspecified), the melting point was 172 to 175 °C.

`Oc1c(CCCBr)ccc2ccccc12`: the melting point lay in the range of 53 to 55 °C.

Turning to `O=C1COCc2ccccc2N1`, the melting point fell in the range of 160 to 165 °C.

The molecule `CN(C(=O)OC(C)(C)C)[C@H]1CCN(C(=O)c2ccc(-c3[nH]nc4c3C(=O)c3c(NC(=O)NN5CCOCC5)cccc3-4)s2)C1` registered a melting point of over 300 °C.

Consider `CN1CCNC(=S)N1c1cc(Cl)cc(Cl)c1`, for which the melting point is 240 to 241 °C.

In turn, `CS(=O)c1ccc(-c2nc(S)[nH]c2-c2ccc(S(C)=O)cc2)cc1` (stereo unspecified) returned a melting point of 261 to 262 °C.

`Nc1nc(=O)[nH]c2cccnc12` had a melting point of over 300 °C.

Turning to `COc1cc(-c2cnc3[nH]cc(C(=O)C(C)(C)OC)c3n2)cc(OC)c1OC`, the melting point lay within 238 to 239 °C.

As to `O=C1C(=O)c2ccccc2C2=C1SCC1(CCN(CCCc3ccccc3)CC1)O2`, the melting point fell in the range of 112 to 114 °C.

Take `CC(C)(C)OC(=O)NC1CC2CCCC(C1)N2Cc1ccccc1` (stereo unspecified): the melting point fell in the range of 154 to 155 °C.

Molecule `COC(=O)c1ccccc1OCC(O)CNCCNC(=O)Cc1ccccc1` (stereo unspecified) showed a melting point of 114 to 115 °C.

Turning to `CC(=O)SCC(CC(C)C)C(=O)NCCN1CCOCC1` (stereo unspecified), the melting point was in the range of 54 to 59 °C.

Molecule `Oc1ccc2nc(CCl)oc2c1` registered a melting point of 148 to 154 °C.

As for `CN(C)c1cc2nc(C(C)(C)C)sc2cc1NC(N)=S`, the melting point lay in the range of 275 to 280 °C.

`COc1ccc(C(NCCNC(c2ccccc2)c2ccc(OC)cc2)c2ccccc2)cc1` (stereo unspecified) came in with a melting point of 97 to 98 °C.

Consider `CCOCc1nc2c(N)nc3ccccc3c2n1N(C)C`, for which the melting point was in the range of 213 to 215 °C.

As to `CCOC(=O)C(C(=O)OCC)C(CC#N)c1ccc(CC)cc1` (stereo unspecified), the melting point lay in the range of 157 to 159 °C.

`CC(=NOCCO)c1ccc(-c2ccccc2)cn1` registered a melting point of 66 to 68 °C.

Regarding `CC(C)(C)OC(=O)[C@H](NS(=O)(=O)c1ccc2c(Cl)cnc(Cl)c2c1)C(C)(C)C`, the melting point lay within 140 to 142 °C.

`CCOP(=O)(/C=C/c1cn(-c2ccccc2)nc1OCc1ccc(OCc2nc(-c3ccccc3)oc2C)cc1)OCC` yielded a melting point of 109 to 110 °C.
